Results on eight molecules are retold here after paper PMC4937797 (Antiviral research, 2016).

Values after ≈ are worked out from the molar mass of the structure shown. “Also recorded” adds a separate entry of the source. Where two headings read alike, the source gives them in different places. Some results are limits rather than exact numbers.

In data set [1] the test system is subgenomic RSV replicon. It counts as cell-based, Respiratory syncytial virus. The note with it: for EC50: read-out: Replicon EC50, APC126-E RSV replicon cells, 48 hours, luminescence; for activity in the primary screen (RSV replicon), in words: 10 μM, HTS data. In general terms: A replicon is a self-replicating genome or part of one, used to study replication in cells.

The subject of a further data set is RSV A Long. It counts as cell-based, Respiratory syncytial virus. The note with it: read-out: RSV Long EC50; Hep2 cells, CPE assay.
The nature of another data set: Aqueous solubility. It counts as physicochemical.
A further data set has as its system RSV B Washington. It counts as cell-based, Respiratory syncytial virus. The note with it: read-out: RSV B EC50, Hep2 cells, CPE assay.
The nature of a further data set: LogD. The class given is physicochemical.
The next data set can be described thus: Plasma protein binding. It counts as in vitro ADME.
The next data set in a line: Hepatic clearance. It counts as in vitro ADME.
A short description of another data set: Microsomal stability. The note with it: human liver microsomes. The class given is in vitro ADME. (Liver microsomes are a subcellular fraction often used to study metabolism.)
A further data set addresses hERG channel (Homo sapiens, UniProt Q12809). The data set can be described thus: hERG channel inhibition. It counts as biochemical. A general note: The hERG channel carries a current that helps repolarise heart muscle cells.
Data set [2] deals with RSV polymerase (L/P complex) (Human respiratory syncytial virus A, UniProt P28887). Put plainly: In vitro RNA synthesis assay with purified L/P complex. The class given is biochemical.
Data set [3] relates to RSV N mutant (nucleoprotein mutations). The class given is cell-based, Respiratory syncytial virus. The note with it: for EC50: read-out: N Mutant EC50, CPE assay, RSV604-resistant N mutant virus.
For data set [4], the system named is RSV L mutant (Y1631H in L polymerase). The class given is cell-based, Respiratory syncytial virus. The note with it: for EC50: read-out: L Mutant EC50.
Data set [5] relates to subgenomic RSV replicon. The note with it: read-out: Replicon EC50; assay validation; ref Tiong-Yip et al (2014); cited from earlier work.

Chain of RSV polymerase (L/P complex) (P03421 whole entry): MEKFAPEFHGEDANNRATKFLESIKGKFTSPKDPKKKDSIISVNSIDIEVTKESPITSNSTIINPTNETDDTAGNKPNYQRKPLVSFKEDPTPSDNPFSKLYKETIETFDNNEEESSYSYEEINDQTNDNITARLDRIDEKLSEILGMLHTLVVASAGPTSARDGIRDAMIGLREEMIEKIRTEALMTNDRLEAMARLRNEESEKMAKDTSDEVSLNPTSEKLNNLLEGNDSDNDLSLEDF
Chain of RSV polymerase (L/P complex) (P28887 whole entry): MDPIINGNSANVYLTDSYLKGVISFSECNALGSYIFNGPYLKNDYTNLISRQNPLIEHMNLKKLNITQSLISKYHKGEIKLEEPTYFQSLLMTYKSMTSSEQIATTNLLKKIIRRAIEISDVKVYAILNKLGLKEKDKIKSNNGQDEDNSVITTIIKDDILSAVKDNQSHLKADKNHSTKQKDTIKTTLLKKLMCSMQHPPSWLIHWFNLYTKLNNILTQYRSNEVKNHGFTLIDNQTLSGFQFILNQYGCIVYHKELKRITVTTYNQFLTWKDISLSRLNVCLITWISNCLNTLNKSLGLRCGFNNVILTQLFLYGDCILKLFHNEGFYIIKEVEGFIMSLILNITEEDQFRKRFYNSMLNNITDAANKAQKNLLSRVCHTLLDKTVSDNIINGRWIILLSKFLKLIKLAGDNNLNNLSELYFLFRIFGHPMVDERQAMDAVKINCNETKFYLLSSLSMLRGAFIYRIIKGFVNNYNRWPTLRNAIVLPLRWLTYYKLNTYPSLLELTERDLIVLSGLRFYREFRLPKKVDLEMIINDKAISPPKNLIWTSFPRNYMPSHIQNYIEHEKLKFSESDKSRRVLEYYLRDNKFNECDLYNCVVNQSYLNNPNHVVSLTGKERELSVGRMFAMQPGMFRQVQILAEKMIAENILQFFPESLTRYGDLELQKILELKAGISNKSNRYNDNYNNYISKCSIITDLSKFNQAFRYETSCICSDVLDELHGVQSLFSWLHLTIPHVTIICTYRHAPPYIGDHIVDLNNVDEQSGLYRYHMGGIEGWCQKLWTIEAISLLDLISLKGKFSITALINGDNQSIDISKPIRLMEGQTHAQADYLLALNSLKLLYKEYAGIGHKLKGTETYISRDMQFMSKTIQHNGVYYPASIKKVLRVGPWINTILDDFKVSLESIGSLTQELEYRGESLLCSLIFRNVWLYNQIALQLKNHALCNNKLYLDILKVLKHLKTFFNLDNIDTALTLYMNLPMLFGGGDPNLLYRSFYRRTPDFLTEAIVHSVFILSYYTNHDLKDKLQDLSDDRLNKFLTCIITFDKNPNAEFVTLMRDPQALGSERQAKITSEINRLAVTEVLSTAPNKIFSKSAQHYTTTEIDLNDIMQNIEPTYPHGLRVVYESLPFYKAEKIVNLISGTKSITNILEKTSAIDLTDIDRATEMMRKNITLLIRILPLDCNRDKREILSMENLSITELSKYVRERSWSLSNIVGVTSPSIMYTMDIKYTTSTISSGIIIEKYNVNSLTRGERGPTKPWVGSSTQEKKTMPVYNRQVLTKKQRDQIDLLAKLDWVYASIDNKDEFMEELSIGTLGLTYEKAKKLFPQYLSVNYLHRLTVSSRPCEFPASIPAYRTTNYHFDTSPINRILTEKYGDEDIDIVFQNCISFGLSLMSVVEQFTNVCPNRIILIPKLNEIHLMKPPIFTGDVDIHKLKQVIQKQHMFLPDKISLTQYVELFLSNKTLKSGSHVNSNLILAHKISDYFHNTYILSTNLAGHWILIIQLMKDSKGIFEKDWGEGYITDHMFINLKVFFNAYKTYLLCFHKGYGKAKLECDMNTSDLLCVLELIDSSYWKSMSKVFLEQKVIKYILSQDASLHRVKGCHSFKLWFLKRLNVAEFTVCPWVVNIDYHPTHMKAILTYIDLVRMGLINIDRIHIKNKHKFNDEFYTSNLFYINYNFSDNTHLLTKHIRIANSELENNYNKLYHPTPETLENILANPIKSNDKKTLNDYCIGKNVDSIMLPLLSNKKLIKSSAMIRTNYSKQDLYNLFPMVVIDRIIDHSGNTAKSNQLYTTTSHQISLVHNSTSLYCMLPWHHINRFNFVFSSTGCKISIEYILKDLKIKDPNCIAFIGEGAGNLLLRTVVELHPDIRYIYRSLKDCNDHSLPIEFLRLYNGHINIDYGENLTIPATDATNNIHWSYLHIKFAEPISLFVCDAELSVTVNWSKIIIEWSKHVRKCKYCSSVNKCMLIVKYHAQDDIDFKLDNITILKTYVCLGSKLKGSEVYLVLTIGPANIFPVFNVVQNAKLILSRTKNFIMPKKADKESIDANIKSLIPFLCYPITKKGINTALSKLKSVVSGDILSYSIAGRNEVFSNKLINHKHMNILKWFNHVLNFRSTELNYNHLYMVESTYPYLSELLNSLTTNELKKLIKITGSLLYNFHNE
Chain of hERG channel (Q12809 whole entry): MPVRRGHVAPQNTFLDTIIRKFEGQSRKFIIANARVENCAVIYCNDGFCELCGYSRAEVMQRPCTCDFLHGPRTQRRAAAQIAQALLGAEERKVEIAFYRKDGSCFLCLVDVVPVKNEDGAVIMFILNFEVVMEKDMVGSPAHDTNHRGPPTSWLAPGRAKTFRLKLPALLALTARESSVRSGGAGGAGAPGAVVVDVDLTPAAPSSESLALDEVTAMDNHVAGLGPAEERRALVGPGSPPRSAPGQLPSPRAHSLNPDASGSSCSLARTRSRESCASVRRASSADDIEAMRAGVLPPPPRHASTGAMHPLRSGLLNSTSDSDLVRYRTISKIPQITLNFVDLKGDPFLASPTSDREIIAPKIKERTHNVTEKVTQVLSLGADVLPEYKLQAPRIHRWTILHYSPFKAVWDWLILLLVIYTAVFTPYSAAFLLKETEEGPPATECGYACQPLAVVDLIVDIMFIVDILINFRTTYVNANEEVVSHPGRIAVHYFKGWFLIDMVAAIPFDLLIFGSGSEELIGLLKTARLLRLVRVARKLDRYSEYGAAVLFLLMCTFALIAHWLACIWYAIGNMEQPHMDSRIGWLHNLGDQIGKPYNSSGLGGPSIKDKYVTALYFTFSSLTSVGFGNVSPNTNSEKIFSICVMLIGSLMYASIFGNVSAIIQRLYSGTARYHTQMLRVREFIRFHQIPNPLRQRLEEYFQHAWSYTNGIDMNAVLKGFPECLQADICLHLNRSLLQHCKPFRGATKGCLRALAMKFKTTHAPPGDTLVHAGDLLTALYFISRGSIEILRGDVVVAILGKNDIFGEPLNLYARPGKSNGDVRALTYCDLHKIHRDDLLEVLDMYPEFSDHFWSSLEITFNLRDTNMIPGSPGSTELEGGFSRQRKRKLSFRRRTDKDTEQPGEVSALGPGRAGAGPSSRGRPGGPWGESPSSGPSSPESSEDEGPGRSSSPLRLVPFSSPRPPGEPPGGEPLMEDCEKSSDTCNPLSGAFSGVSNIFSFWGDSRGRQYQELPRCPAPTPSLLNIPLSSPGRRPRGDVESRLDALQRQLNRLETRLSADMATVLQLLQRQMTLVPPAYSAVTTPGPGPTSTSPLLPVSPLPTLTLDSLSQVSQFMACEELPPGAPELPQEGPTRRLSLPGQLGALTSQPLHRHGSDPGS

The EC50 is the concentration at which the effect is half-maximal. Usually Solubility stands for how much of the substance goes into solution per volume. Read a low Solubility as little dissolved substance. As usually defined, the LogD is lipophilicity at a set pH, counting ionised and neutral species. Lower therefore signals a more hydrophilic compound. On to `COc1cc(CN2CC3(CCN(S(=O)(=O)c4cn(C)cn4)CC3)c3c(n(C)c4cc(OC)ccc34)[C@H]2CO)cc(OC)c1` [BRD3482], for which the results for the EC50 with subgenomic RSV replicon [1], in the data set on RSV A Long and in the data set with RSV B Washington were 7.2 µM, 1 µM and 4.7 µM, respectively. In addition, the Solubility in the data set “Aqueous solubility” stood at 22 µM (≈ 13.4 µg/mL). The molecule also gave a LogD in “LogD” of 2.9. For the same molecule, the “PPB (% free)” value in “Plasma protein binding” is reported as 3.8 % free.
In turn, `Cc1cccc(-c2ccc([C@@H]3[C@@H](CO)N4CCCCN(S(=O)(=O)c5cn(C)cn5)C[C@@H]34)cc2)c1` [BRD3969] returned a Rhep in “Hepatic clearance” of 61.7 μL/min/10^6 cells. The HLM in the data set “Microsomal stability” is 77.9 µL/min/mg. Moreover, in the data set with subgenomic RSV replicon [1], the “activity in the primary screen (RSV replicon), in words” value was “weak but significant activity” and the EC50 is 4.2 µM. Further, the EC50 with RSV A Long was determined as 3.9 µM. Besides, the “hERG (% inh at 11 μM)” value at hERG channel was 14%. For the same molecule, the Solubility in “Aqueous solubility” stood at 49 µM (≈ 23.6 µg/mL). Also, the EC50 with RSV B Washington is greater than 50 µM. Also, the log distribution coefficient (LogD) in “LogD” is 3.6. The “effect on RSV RNA synthesis initiation or elongation in vitro” value in data set [2] (1000 μM, data not shown) is “no effect”. For the same molecule, the “effect on in vitro RNA synthesis (de novo synthesis, back-priming)” value in data set [2] (concentrations up to 100 μM, 30 °C, 2 h) is “does not inhibit the ability of the polymerase to synthesize RNA; also recorded: no discernible effect”. Moreover, in the data set “Plasma protein binding”, the “PPB (% free)” value is listed as 1.6 % free. Moreover, in [3], the “N Mutant fold shift” value is 6.9 μM (1.8x) and the EC50 was 6.9 µM. Moreover, the “effect on T7 RNA polymerase (input minigenome template)” value in the data set on T7 RNA polymerase is “inhibited T7 RNA polymerase”. In [4], the “L Mutant fold shift” value is on record as > 25 μM (>6x), the “shift in activity against the L-mutant strain” value (from here on “shift in activity”) is on record as “greater than 6 fold” and the EC50 is greater than 25 µM.
Turning to `CN1c2ccc(-c3ccc(C#N)cc3)cc2[C@H]2[C@H](CCN2C(=O)c2cccc(F)c2)[C@@H]1CO` [BRD4517], the half-maximal effective concentration (EC50) is 10.6 µM with subgenomic RSV replicon [1], 1.6 µM in the data set with RSV A Long and 5.5 µM in the data set with RSV B Washington.
The molecule `COc1ccc2c3c([nH]c2c1)[C@H](CO)N(Cc1ccccc1)CC31CCN(C(=O)Cc2ccccc2)CC1` [BRD5449] came in with a Rhep in the data set “Hepatic clearance” of 194 μL/min/10^6 cells. In the data set “Microsomal stability”, the HLM is 465 µL/min/mg. Also, the EC50 in the data set on subgenomic RSV replicon [1] is 4.9 µM; with RSV A Long, 6.8 µM; in the data set with RSV B Washington, greater than 50 µM. The same molecule yielded a Solubility in the data set “Aqueous solubility” of 16 µM (≈ 8.15 µg/mL). In “LogD”, this molecule gave a LogD greater than 4.4. In addition, the “PPB (% free)” value in “Plasma protein binding” is less than 1 % free.
`O=S(=O)(c1cccs1)N1CCCCN2[C@H](CO)[C@@H](c3ccc(/C=C/c4ccccc4)cc3)[C@@H]2C1` [BRD9101]: the Rhep in the data set “Hepatic clearance” turned out to be 67.8 μL/min/10^6 cells. The molecule further gave an HLM in “Microsomal stability” of 57.1 µL/min/mg. For the same molecule, in the data set with subgenomic RSV replicon [1] (10 uM, single concentration HTS), the “% inhibition of the RSV replicon in the primary screen” value is 70%. In addition, the EC50 is 4.3 µM in the data set on subgenomic RSV replicon [1]; 1.7 µM in the data set on RSV A Long; greater than 50 µM in the data set with RSV B Washington; 7.8 µM in data set [3]; greater than 25 µM in data set [4]. Moreover, the Solubility in the data set “Aqueous solubility” is less than 1 µM. Further, in “LogD”, the log distribution coefficient (LogD) is reported as greater than 4.8. Also, the “PPB (% free)” value in “Plasma protein binding” was less than 1 % free. In addition, the “N Mutant fold shift” value in data set [3] (shift versus RSV A2 EC50) is recorded as 4.6 x. The “shift in activity” value in data set [4] is on record as “greater than 15 fold”.
As to `Cn1cnc(S(=O)(=O)N2CCCCN3[C@H](CO)[C@@H](c4ccc(-c5ccc(F)cc5)cc4)[C@@H]3C2)c1` [BRD65768], the Rhep in “Hepatic clearance” came out at 23.6 μL/min/10^6 cells. This molecule also showed an HLM in “Microsomal stability” of 41.2 µL/min/mg. The “activity in the primary screen (RSV replicon), in words” value in the data set with subgenomic RSV replicon [1] is given as “weak but significant activity”. The concentration for a half-maximal effect (EC50) in the data set on subgenomic RSV replicon [1] was 4.3 µM; with RSV A Long, 7.5 µM; in the data set on RSV B Washington it was greater than 50 µM; in data set [3], 13.1 µM; in data set [4], greater than 25 µM. In addition, the “hERG (% inh at 11 μM)” value on hERG channel was determined as 18%. In the data set “Aqueous solubility”, this molecule showed a Solubility of 121 µM (≈ 58.6 µg/mL). In “LogD”, this molecule gave a LogD of 3.3. For the same molecule, the “PPB (% free)” value in “Plasma protein binding” turned out to be 2.1 % free. Further, in data set [3] (shift versus RSV A2 EC50), the “N Mutant fold shift” value was 2 x. Further, the “shift in activity” value in data set [4] is recorded as greater than 3 fold. Moreover, the “L Mutant fold shift” value in data set [4] (shift versus RSV A2 EC50) is on record as greater than 4 x.
Consider `O=C(NC1CC1)c1cc2c(s1)-c1ccccc1N(C(=O)c1ccc(NC(=O)c3ccccc3-c3ccccc3)cc1)CC2` [YM53403], for which the EC50 with subgenomic RSV replicon [5] is 0.63 µM.
Regarding `NC(=O)c1ncn([C@@H]2O[C@H](CO)[C@@H](O)[C@H]2O)n1` [ribavirin], the EC50 in the data set with subgenomic RSV replicon [5] was 6.28 µM.
